Test results as given in patent US20220089636A1, “TETRAZOLONE SUBSTITUTED STEROIDS AND USE THEREOF” (Beijing Xuanyi PharmaSciences Co., Ltd., priority 2019, published 2022).
Read-outs that look alike come from different tables or passages of the source.

Tests used:
[1] = Mouse PK study (i.v. and p.o.); assay type: in vivo; details: plasma, male CD1 mice
Experimental: Test compounds were dosed to male CD1 mice at 5 mg/kg by oral gavage (p.o.) or 1 mg/kg by intravenous injection (i.v.). Blood samples were taken at 0.083, 0.25, 0.5, 1.0, 3.0, 6.0 and 24 hours post i.v. dosing and at 0.25, 0.5, 1.0, 3.0, 6.0 and 24 hours post p.o. dosing. The plasma concentration of compounds were determined by HPLC.

PTZ-treated mice = test: Acute PTZ (pentylenetetrazol-induced seizure) assay; assay type: in vivo, Male CD-1 mice; details: 3 mg/kg oral gavage 60 min prior to PTZ 120 mg/kg s.c.; observed 30 min
Experimental: The anticonvulsant effect of test compounds were assessed in the pentylenetetazol-induced seizure assay in mice similar to methods described in Giardina & Gasior (2009) Curr Protoc Pharmacol., Chapter 5. Male CD-1 mice were housed in groups of five under controlled conditions (temperature of 22±2° C. and 12:12 light-dark cycle, lights on at 8:00 am) and water and food were available ad libitum. The mice were housed for 1 week prior to behavioral testing, at which time they weighed 25-35 g. Pentylenetetrazol (PTZ, Sigma) was dissolved in sterile 0.9% saline at a concentration of 12 mg/mL concentration for subcutaneous administration. Test compounds were formulated and administered via oral gavage at 60 minutes prior to PTZ injection. AU solutions were made fresh and were given in a volume of 10 ml/kg body weight.
Mice were acclimated to the test room for at least 30 min before compound administration. Mice were randomized into at least four test groups (vehicle and at least three doses of the test compound) with 10 mice per group. […] Following the drug pretreatment time, the mice were injected s.c. with PTZ (120 mg/kg). Immediately following the PTZ injection, mice were individually placed into observation chambers (25×15×15 cm) and a three-channel timer was started. Each mouse was continuously observed for 30 min and the following behaviors were recorded by observers blinded to the treatments: 1) latency to clonic convulsions that persist for 3 sec and followed by an absence of righting reflex 2) latency to tonic convulsions, characterized by the rigid extension of all four limbs that exceeded a 90 degree angle with the body 3) latency to death 4) number of clonic and tonic convulsions. Data are presented as mean±S.E.M and one-way analysis of variance with Dunnetfs or Bonferroni's post-hoc test was used to detect significant differences in latency and number between the vehicle and dose group, p values<0.05 were regarded as statistically significant.

α1β2γ2 GABAA receptor = target: T1, α1β2γ2 GABAA receptor (Homo sapiens, UniProt P14867+P47870); test: Patch clamp electrophysiology assay of recombinant α1β2γ2 GABAA receptors (potentiation of 2 μM GABA-evoked Cl- current); assay type: cell-based; details: HEK293T cells stably transfected with α1β2γ2 GABAA; whole cell, 2 μM GABA, -80 mV
T1 construct: expressed in transfected cells
Summary of the method: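 Whole-cell voltage clamp at −80 mV on HEK293T cells stably expressing human α1β2γ2 GABAA. Compounds applied for 3 min, then 2 μM GABA (EC10–EC20) applied to assess potentiation of Cl− current. Ascending 0.003–10 μM concentrations tested on each cell, 180 s apart, with Rm >500 MΩ, Ra <15 MΩ and leak <100 pA as cell criteria.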

T1 sequence (P14867 28-456): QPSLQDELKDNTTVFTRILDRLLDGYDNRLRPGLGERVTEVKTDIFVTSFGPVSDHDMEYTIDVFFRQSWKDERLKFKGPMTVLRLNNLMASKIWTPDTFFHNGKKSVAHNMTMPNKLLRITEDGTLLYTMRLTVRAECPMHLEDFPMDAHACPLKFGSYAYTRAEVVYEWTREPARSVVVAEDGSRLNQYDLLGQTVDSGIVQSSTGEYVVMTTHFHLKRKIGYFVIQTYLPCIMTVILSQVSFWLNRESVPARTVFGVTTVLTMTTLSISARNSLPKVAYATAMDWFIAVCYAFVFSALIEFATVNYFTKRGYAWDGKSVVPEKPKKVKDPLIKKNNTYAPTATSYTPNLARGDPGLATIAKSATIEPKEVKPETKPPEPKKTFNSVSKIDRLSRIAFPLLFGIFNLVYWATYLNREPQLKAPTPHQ
T1 sequence (P47870 25-512 limits assumed): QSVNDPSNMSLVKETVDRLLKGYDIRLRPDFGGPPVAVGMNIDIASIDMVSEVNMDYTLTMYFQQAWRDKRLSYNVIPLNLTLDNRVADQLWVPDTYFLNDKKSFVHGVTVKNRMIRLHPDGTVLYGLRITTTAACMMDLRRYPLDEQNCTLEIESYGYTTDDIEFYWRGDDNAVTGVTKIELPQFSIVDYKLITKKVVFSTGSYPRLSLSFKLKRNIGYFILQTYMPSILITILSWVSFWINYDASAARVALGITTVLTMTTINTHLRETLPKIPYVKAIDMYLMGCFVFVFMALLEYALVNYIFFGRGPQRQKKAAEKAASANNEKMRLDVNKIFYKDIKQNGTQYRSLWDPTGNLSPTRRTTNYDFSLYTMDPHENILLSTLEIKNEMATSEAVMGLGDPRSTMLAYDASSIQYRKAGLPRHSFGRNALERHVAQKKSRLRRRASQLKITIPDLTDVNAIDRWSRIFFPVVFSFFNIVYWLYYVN
T1 sequence (P18507 40-475 partner): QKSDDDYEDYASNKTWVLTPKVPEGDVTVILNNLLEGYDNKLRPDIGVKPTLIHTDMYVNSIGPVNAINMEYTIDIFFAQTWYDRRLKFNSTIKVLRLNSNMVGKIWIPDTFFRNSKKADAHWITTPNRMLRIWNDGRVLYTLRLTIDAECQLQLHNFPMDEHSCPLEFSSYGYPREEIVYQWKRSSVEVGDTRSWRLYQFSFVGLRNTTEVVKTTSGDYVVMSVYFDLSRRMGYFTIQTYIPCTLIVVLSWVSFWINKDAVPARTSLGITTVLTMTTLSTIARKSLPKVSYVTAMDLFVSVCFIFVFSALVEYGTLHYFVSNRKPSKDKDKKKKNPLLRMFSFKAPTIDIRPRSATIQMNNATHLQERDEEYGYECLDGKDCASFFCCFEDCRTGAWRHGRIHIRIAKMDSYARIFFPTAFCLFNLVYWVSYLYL

For `C[C@@]1(O)CC[C@H]2[C@H](CC[C@@H]3[C@@H]2CC[C@]2(C)[C@@H](C(=O)Cn4nnn(-c5ccccc5)c4=O)CC[C@@H]32)C1` [Example 10, 1-(2-((3R,5R,8R,9R,10S,13S,14S,17S)-3-hydroxy-3,13-dimethylhexadecahydro-1H-cyclopenta[a]phenanthren-17-yl)-2-oxoethyl)-4-phenyl-1,4-dihydro-5H-tetrazol-5-one], the clearance ([1]; iv, 1 mg/kg i.v.) was 9 mL/min/kg, the AUC(0-t) ([1]; iv, 1 mg/kg i.v., read-out: AUClast (hr*ng/mL) i.v.) was 1840 ng·h/mL and the half-life ([1]; iv, 1 mg/kg i.v., read-out: T1/2 (hr) i.v. (converted)) was 4.22 h. For the same compound, the Vd ([1]; iv, 1 mg/kg i.v., read-out: Vss) was 2.16 L/kg, the Cmax ([1]; po, 5 mg/kg p.o.) was 491 ng/mL and the Tmax ([1]; po, 5 mg/kg p.o.) was 3 h. The bioavailability ([1]; po, 5 mg/kg p.o. vs 1 mg/kg i.v.) was 60.5%, the AUC(0-t) ([1]; po, 5 mg/kg p.o., read-out: AUClast (hr*ng/mL) p.o.) was 5510 ng·h/mL and the “Clonic Seizure Latency (sec) (Mean)” value (PTZ-treated mice) was 1485 + 210.2 sec. The “Clonic Seizure Number (Mean)” value (PTZ-treated mice) was 0.3 ± 0.2, the “Mortality (%)” value (PTZ-treated mice) was 0.0% and the “Onset of death (sec) (Mean)” value (PTZ-treated mice) was 1800 + 0.0 sec. The “Tonic Seizure Latency (sec) (Mean)” value (PTZ-treated mice) was 1800 + 0.0 sec, the “Tonic Seizure Number (Mean)” value (PTZ-treated mice) was 0.0 + 0.0 and the EC50 (α1β2γ2 GABAA receptor) was 27 nM.
